Test results: BigSolDB 2.1

O=C(O[C@@H]1Cc2c(O)cc(O)cc2O[C@@H]1c1cc(O)c(O)c(O)c1)c1cc(O)c(O)c(O)c1
solubility (mole fraction)
Settings	278.15 K	288.15 K	298.15 K	308.15 K	318.15 K
in 2-butoxyethanol	0.00142	0.00195	0.00268	0.00384	0.00559
in 2-ethoxyethanol	0.00904	0.0151	0.0272	0.0436	0.0701
in 2-methoxyethanol	0.0158	0.0254	0.0365	0.0558	0.0815
in 2-propoxyethanol	0.00275	0.00352	0.00456	0.0059	0.00809
in ethanol	5.41e-05	9.24e-05	0.000175	0.000387	0.000714
in isopropanol	6e-06	1.67e-05	5.53e-05	0.000194	0.000481
in methanol	–	1.65e-05	5.8e-05	0.000184	0.000612
in n-butanol	–	1.95e-05	5.41e-05	0.000136	0.000349
in n-hexanol	6.8e-07	3.87e-06	1.79e-05	5.35e-05	0.000138
in n-pentanol	9.9e-07	5.7e-06	3.01e-05	8.6e-05	0.000187
in n-propanol	1.22e-05	3.79e-05	9.06e-05	0.000195	0.000656
in sec-butanol	5.04e-06	2.12e-05	4.97e-05	0.00014	0.000636
